Here are results for 2 compounds from publication PMC9143880, “Improving Antimicrobial Activity and Physico-Chemical Properties by Isosteric Replacement of 2-Aminothiazole with 2-Aminooxazole” (Pharmaceuticals, 2022).

Assay [1] concerns Mycobacterium tuberculosis H37Ra ITM-M006710 (ATCC 9431). Description: Antimycobacterial MIC, microdilution broth / Alamar Blue (resazurin). The following applies: Mycobacterium tuberculosis, 120 h, Middlebrook 7H9, resazurin after 120 h; read-out: Mtb H37Ra MIC. It counts as cell-based.
For assay [2], the system named is M. smegmatis DSM 43465 (ATCC 607). Description: Antimycobacterial MIC, microdilution broth / resazurin. The note with it: Mycolicibacterium smegmatis; resazurin after 48 h; read-out: MIC M. smegmatis. It counts as cell-based.
Assay [3] deals with M. aurum DSM 43999 (ATCC 23366). The description is as above. The note with it: Mycolicibacterium aurum; resazurin after 72 h; read-out: MIC M. aurum. The assay is classed as cell-based.
The test system of assay [4] is M. avium DSM 44156 (ATCC 25291). Described as above. The assay is classed as cell-based, Mycobacterium avium. The note with it: Mycobacterium avium; resazurin after 96 h; read-out: MIC M. avium.
Assay [5] relates to M. kansasii DSM 44162 (ATCC 12478). The description is as above. The assay is classed as cell-based. The note with it: Mycobacterium kansasii; resazurin after 96 h; read-out: MIC M. kansasii.
In assay [6] the test system is Mtb H37Rv CNCTC My 331/88 (ATCC 27294). The assay can be described thus: microbe, parasite or virus in culture. It counts as cell-based. The note with it: Mycobacterium tuberculosis, read-out: MIC Mtb H37Rv.
The subject of assay [7] is Mtb laboratory ID IZAK. It counts as cell-based, Mycobacterium tuberculosis. The following applies: MDR strain IZAK, CLSI breakpoints 2020.
The test system of assay [8] is Mtb laboratory ID MATI. The assay is classed as cell-based, Mycobacterium tuberculosis. The following applies: MDR strain MATI, CLSI breakpoints 2021.

In brackets after ≈: the same amount, converted by molar mass.

With `O=C(O)c1cn(C2CC2)c2cc(N3CCNCC3)c(F)cc2c1=O` [CIP, ciprofloxacin, reference compound], the MIC in assay [1] is 0.25 µg/mL (≈ 0.754 µM); in assay [2] it was 0.125 µg/mL (≈ 0.377 µM); in assay [3], 0.0156 µg/mL (≈ 0.0472 µM); in assay [4], 0.25 to 0.5 µg/mL (≈ 0.754 to 1.51 µM); in assay [5], 0.25 µg/mL (≈ 0.754 µM); in assay [6], 0.2 µg/mL (≈ 0.604 µM).

Turning to `CO[C@H]1/C=C/O[C@@]2(C)Oc3c(C)c(O)c4c(O)c(c(/C=N/N5CCN(C)CC5)c(O)c4c3C2=O)NC(=O)/C(C)=C\C=C\[C@H](C)[C@H](O)[C@@H](C)[C@@H](O)[C@@H](C)[C@H](OC(C)=O)[C@@H]1C` [RIF, rifampicin], the MIC in assay [2] worked out at 12.5 µg/mL (≈ 15.2 µM); in assay [3], 0.39 µg/mL (≈ 0.474 µM); in assay [5], 0.025 µg/mL (≈ 0.0304 µM). In addition, the “Concentration (susceptibility profile)” value in assay [7] and in assay [8] was greater than 8 µg/mL each time. The Susceptibility result in assay [7] and in assay [8] was “resistant” in each case.
